Experimental data taken from ChEMBL document CHEMBL4373736, “Synthesis and biological evaluation of panaxatriol derivatives against myocardial ischemia/reperfusion injury in the rat” (Eur J Med Chem, 2020).

Tests used:
Cardiac muscle cell [1] = assay: Cytoprotective activity against OGD/reperfusion induced injury in Sprague-Dawley rat cardiomyocytes assessed as effect on cell viability at 1 uM pretreated for 24 hrs followed by OGD for 2 hrs and subsequent reperfusion for 24 hrs (reference value: 43.9 to 45.4 +/- 1.1 %); assay type: functional
Cardiac muscle cell [2] = assay: Cytoprotective activity against OGD/reperfusion induced injury in Sprague-Dawley rat cardiomyocytes assessed as effect on cell viability at 0.1 uM pretreated for 24 hrs followed by OGD for 2 hrs and subsequent reperfusion for 24 hrs (reference value: 43.9 to 45.4 +/- 1.1 %); assay type: functional
Cardiac muscle cell [3] = assay: Cytotoxicity against Sprague-Dawley rat cardiomyocytes assessed as inhibition of cell growth at 10 uM treated for 50 hrs by MTT assay; assay type: cell-based
Cardiac muscle cell [4] = assay: Cytoprotective activity against OGD/reperfusion induced injury in Sprague-Dawley rat cardiomyocytes assessed as effect on cell viability at 10 uM pretreated for 24 hrs followed by OGD for 2 hrs and subsequent reperfusion for 24 hrs (reference value: 43.9 to 45.4 +/- 1.1 %); assay type: functional
Rattus norvegicus = assay: Cardioprotective activity in Sprague-Dawley rat model of LAD coronary artery ligation-induced ischemia/reperfusion assessed as infarct size of left ventricle size at 40 mg/kg, ig pretreated twice a day for 3 days and measured 24 hrs post-reperfusion by TTC staining based assay (reference value: 49.1 %); assay type: functional

CC1(C)CCC[C@](C)([C@H]2CC[C@]3(C)[C@@H]2[C@H](O)C[C@@H]2[C@@]4(C)Cc5c([nH]c6c(Cl)cc(F)cc56)C(C)(C)[C@@H]4C(=O)C[C@]23C)O1
Activity (Cardiac muscle cell [1]): 57.1%
Activity (Cardiac muscle cell [2]): 52.9%
Activity (Cardiac muscle cell [3]): Non-Toxic
Activity (Cardiac muscle cell [4]): 62.1%

CCOC(=O)c1nn(-c2ccccc2)c2c1C[C@]1(C)[C@H]3C[C@@H](O)[C@@H]4[C@@H]([C@@]5(C)CCCC(C)(C)O5)CC[C@@]4(C)[C@]3(C)C[C@@H](O)[C@H]1C2(C)C
Activity (Cardiac muscle cell [1]): 56.8%
Activity (Cardiac muscle cell [2]): 51.4%
Activity (Cardiac muscle cell [3]): Non-Toxic
Activity (Cardiac muscle cell [4]): 63.6%

CC1(C)CCC[C@](C)([C@H]2CC[C@]3(C)[C@@H]2[C@H](O)C[C@@H]2[C@@]4(C)Cc5c([nH]c6ccc(Cl)cc56)C(C)(C)[C@@H]4C(=O)C[C@]23C)O1
Activity (Cardiac muscle cell [1]): 57.3%
Activity (Cardiac muscle cell [2]): 51.7%
Activity (Cardiac muscle cell [3]): Non-Toxic
Activity (Cardiac muscle cell [4]): 62.7%

CC1(C)CCC[C@](C)([C@H]2CC[C@]3(C)[C@@H]2[C@H](O)C[C@@H]2[C@@]4(C)Cc5c(n[nH]c5C(F)(F)F)C(C)(C)[C@@H]4[C@H](O)C[C@]23C)O1
Activity (Cardiac muscle cell [1]): 67.6%
Activity (Cardiac muscle cell [2]): 60.2%
Activity (Cardiac muscle cell [3]): Non-Toxic
Activity (Cardiac muscle cell [4]): 76.4%

CC1(C)CCC[C@](C)([C@H]2CC[C@]3(C)[C@@H]2[C@H](O)C[C@@H]2[C@@]4(C)Cc5nccnc5C(C)(C)[C@@H]4[C@@H](O)C[C@]23C)O1
Activity (Cardiac muscle cell [1]): 62.3%
Activity (Cardiac muscle cell [2]): 54.9%
Activity (Cardiac muscle cell [3]): Non-Toxic
Activity (Cardiac muscle cell [4]): 70.3%

CC1(C)CCC[C@](C)([C@H]2CC[C@]3(C)[C@@H]2[C@H](O)C[C@@H]2[C@@]4(C)Cc5c[nH]nc5C(C)(C)[C@@H]4[C@H](O)C[C@]23C)O1
Activity (Cardiac muscle cell [1]): 55.9%
Activity (Cardiac muscle cell [2]): 48.6%
Activity (Cardiac muscle cell [3]): Non-Toxic
Activity (Cardiac muscle cell [4]): 61.7%

Cc1nc2c(s1)C[C@]1(C)[C@H]3C[C@@H](O)[C@@H]4[C@@H]([C@@]5(C)CCCC(C)(C)O5)CC[C@@]4(C)[C@]3(C)CC(=O)[C@H]1C2(C)C
Activity (Cardiac muscle cell [1]): 52.1%
Activity (Cardiac muscle cell [2]): 48.7%
Activity (Cardiac muscle cell [3]): Non-Toxic
Activity (Cardiac muscle cell [4]): 58.5%

CC1(C)CCC[C@](C)([C@H]2CC[C@]3(C)[C@@H]2[C@H](O)C[C@@H]2[C@@]4(C)Cc5sc(Br)nc5C(C)(C)[C@@H]4C(=O)C[C@]23C)O1
Activity (Cardiac muscle cell [1]): 69.2%
Activity (Cardiac muscle cell [2]): 59.5%
Activity (Cardiac muscle cell [3]): Non-Toxic
Activity (Cardiac muscle cell [4]): 77.2%

CC(C)c1nc2c(s1)C[C@]1(C)[C@H]3C[C@@H](O)[C@@H]4[C@@H]([C@@]5(C)CCCC(C)(C)O5)CC[C@@]4(C)[C@]3(C)CC(=O)[C@H]1C2(C)C
Activity (Cardiac muscle cell [1]): 59.5%
Activity (Cardiac muscle cell [2]): 50.6%
Activity (Cardiac muscle cell [3]): Non-Toxic
Activity (Cardiac muscle cell [4]): 66%

CC1(C)CCC[C@](C)([C@H]2CC[C@]3(C)[C@@H]2[C@H](O)C[C@@H]2[C@@]4(C)Cc5c([nH]c6ccc(F)cc56)C(C)(C)[C@@H]4C(=O)C[C@]23C)O1
Activity (Cardiac muscle cell [1]): 58.8%
Activity (Cardiac muscle cell [2]): 54.6%
Activity (Cardiac muscle cell [3]): Non-Toxic
Activity (Cardiac muscle cell [4]): 63.6%

CC1(C)CCC[C@](C)([C@H]2CC[C@]3(C)[C@@H]2[C@H](O)C[C@@H]2[C@@]4(C)Cc5c([nH]c6ccc(S(N)(=O)=O)cc56)C(C)(C)[C@@H]4C(=O)C[C@]23C)O1
Activity (Cardiac muscle cell [1]): 61.5%
Activity (Cardiac muscle cell [2]): 55.1%
Activity (Cardiac muscle cell [3]): Non-Toxic
Activity (Cardiac muscle cell [4]): 66.3%

CC1(C)CCC[C@](C)([C@H]2CC[C@]3(C)[C@@H]2[C@H](O)C[C@@H]2[C@@]4(C)Cc5sc(-c6cccnc6)nc5C(C)(C)[C@@H]4C(=O)C[C@]23C)O1
Activity (Cardiac muscle cell [1]): 51.3%
Activity (Cardiac muscle cell [2]): 46.9%
Activity (Cardiac muscle cell [3]): Non-Toxic
Activity (Cardiac muscle cell [4]): 57.2%

CC1(C)CCC[C@](C)([C@H]2CC[C@]3(C)[C@@H]2[C@H](O)C[C@@H]2[C@@]4(C)CC[C@H](O)C(C)(C)[C@@H]4[C@H](O)C[C@]23C)O1
Activity (Cardiac muscle cell [1]): 52.3%
Activity (Cardiac muscle cell [2]): 47.8%
Activity (Cardiac muscle cell [3]): Non-Toxic
Activity (Cardiac muscle cell [4]): 61.9%
Activity (Rattus norvegicus): 30.6%

CC1(C)CCC[C@](C)([C@H]2CC[C@]3(C)[C@@H]2[C@H](O)C[C@@H]2[C@@]4(C)Cc5nccnc5C(C)(C)[C@@H]4C(=O)C[C@]23C)O1
Activity (Cardiac muscle cell [1]): 64%
Activity (Cardiac muscle cell [2]): 56.4%
Activity (Cardiac muscle cell [3]): Non-Toxic
Activity (Cardiac muscle cell [4]): 71.5%

CC1(C)CCC[C@](C)([C@H]2CC[C@]3(C)[C@@H]2[C@H](O)C[C@@H]2[C@@]4(C)Cc5c(CO)noc5C(C)(C)[C@@H]4[C@H](O)C[C@]23C)O1
Activity (Cardiac muscle cell [1]): 60.9%
Activity (Cardiac muscle cell [2]): 55.1%
Activity (Cardiac muscle cell [3]): Non-Toxic
Activity (Cardiac muscle cell [4]): 66.8%

CC1(C)CCC[C@](C)([C@H]2CC[C@]3(C)[C@@H]2[C@H](O)C[C@@H]2[C@@]4(C)Cc5c(CO)nn(-c6ccccc6)c5C(C)(C)[C@@H]4[C@H](O)C[C@]23C)O1
Activity (Cardiac muscle cell [1]): 56.6%
Activity (Cardiac muscle cell [2]): 51.6%
Activity (Cardiac muscle cell [3]): Non-Toxic
Activity (Cardiac muscle cell [4]): 61.2%

C=CCNc1nc2c(s1)C[C@]1(C)[C@H]3C[C@@H](O)[C@@H]4[C@@H]([C@@]5(C)CCCC(C)(C)O5)CC[C@@]4(C)[C@]3(C)CC(=O)[C@H]1C2(C)C
Activity (Cardiac muscle cell [1]): 70%
Activity (Cardiac muscle cell [2]): 61.6%
Activity (Cardiac muscle cell [3]): Non-Toxic
Activity (Cardiac muscle cell [4]): 77.4%

COc1ccc2[nH]c3c(c2c1)C[C@]1(C)[C@H]2C[C@@H](O)[C@@H]4[C@@H]([C@@]5(C)CCCC(C)(C)O5)CC[C@@]4(C)[C@]2(C)CC(=O)[C@H]1C3(C)C
Activity (Cardiac muscle cell [1]): 79.6%
Activity (Cardiac muscle cell [2]): 70.1%
Activity (Cardiac muscle cell [3]): Non-Toxic
Activity (Cardiac muscle cell [4]): 88%

CCOC(=O)c1nc2c(s1)C[C@]1(C)[C@H]3C[C@@H](O)[C@@H]4[C@@H]([C@@]5(C)CCCC(C)(C)O5)CC[C@@]4(C)[C@]3(C)CC(=O)[C@H]1C2(C)C
Activity (Cardiac muscle cell [1]): 75.3%
Activity (Cardiac muscle cell [2]): 59.1%
Activity (Cardiac muscle cell [3]): Non-Toxic
Activity (Cardiac muscle cell [4]): 86.6%

CC1(C)CCC[C@](C)([C@H]2CC[C@]3(C)[C@@H]2[C@H](O)C[C@@H]2[C@@]4(C)Cc5c([nH]c6ccc(OC(F)(F)F)cc56)C(C)(C)[C@@H]4C(=O)C[C@]23C)O1
Activity (Cardiac muscle cell [1]): 70.8%
Activity (Cardiac muscle cell [2]): 64.4%
Activity (Cardiac muscle cell [3]): Non-Toxic
Activity (Cardiac muscle cell [4]): 78.4%

CC1(C)CCC[C@](C)([C@H]2CC[C@]3(C)[C@@H]2[C@H](O)C[C@@H]2[C@@]4(C)Cc5cnoc5C(C)(C)[C@@H]4[C@H](O)C[C@]23C)O1
Activity (Cardiac muscle cell [1]): 67.2%
Activity (Cardiac muscle cell [2]): 60.6%
Activity (Cardiac muscle cell [3]): Non-Toxic
Activity (Cardiac muscle cell [4]): 76.9%

CC1(C)CCC[C@](C)([C@H]2CC[C@]3(C)[C@@H]2[C@H](O)C[C@@H]2[C@@]4(C)Cc5sc(N)nc5C(C)(C)[C@@H]4[C@@H](O)C[C@]23C)O1
Activity (Cardiac muscle cell [1]): 57.6%
Activity (Cardiac muscle cell [2]): 52.4%
Activity (Cardiac muscle cell [3]): Non-Toxic
Activity (Cardiac muscle cell [4]): 62.4%

CC1(C)CCC[C@](C)([C@H]2CC[C@]3(C)[C@@H]2[C@H](O)C[C@@H]2[C@@]4(C)Cc5sc(Nc6ccccc6)nc5C(C)(C)[C@@H]4C(=O)C[C@]23C)O1
Activity (Cardiac muscle cell [1]): 56%
Activity (Cardiac muscle cell [2]): 49.7%
Activity (Cardiac muscle cell [3]): Non-Toxic
Activity (Cardiac muscle cell [4]): 63%

CC1(C)CCC[C@](C)([C@H]2CC[C@]3(C)[C@@H]2[C@H](O)C[C@@H]2[C@@]4(C)Cc5sc(NC(=N)N)nc5C(C)(C)[C@@H]4C(=O)C[C@]23C)O1
Activity (Cardiac muscle cell [1]): 52.5%
Activity (Cardiac muscle cell [2]): 48.9%
Activity (Cardiac muscle cell [3]): Non-Toxic
Activity (Cardiac muscle cell [4]): 57.2%

CC1(C)CCC[C@](C)([C@H]2CC[C@]3(C)[C@@H]2[C@H](O)C[C@@H]2[C@@]4(C)Cc5sc(-c6ccc(Cl)cc6)nc5C(C)(C)[C@@H]4C(=O)C[C@]23C)O1
Activity (Cardiac muscle cell [1]): 54.8%
Activity (Cardiac muscle cell [2]): 49.5%
Activity (Cardiac muscle cell [3]): Non-Toxic
Activity (Cardiac muscle cell [4]): 60.3%

CC1(C)CCC[C@](C)([C@H]2CC[C@]3(C)[C@@H]2[C@H](O)C[C@@H]2[C@@]4(C)Cc5cnn(-c6ccc(F)cc6)c5C(C)(C)[C@@H]4[C@H](O)C[C@]23C)O1
Activity (Cardiac muscle cell [1]): 65.3%
Activity (Cardiac muscle cell [2]): 56.5%
Activity (Cardiac muscle cell [3]): Non-Toxic
Activity (Cardiac muscle cell [4]): 73.2%

CCOC(=O)c1[nH]nc2c1C[C@]1(C)[C@H]3C[C@@H](O)[C@@H]4[C@@H]([C@@]5(C)CCCC(C)(C)O5)CC[C@@]4(C)[C@]3(C)C[C@@H](O)[C@H]1C2(C)C
Activity (Cardiac muscle cell [1]): 54.1%
Activity (Cardiac muscle cell [2]): 48%
Activity (Cardiac muscle cell [3]): Non-Toxic
Activity (Cardiac muscle cell [4]): 60.4%

CC1(C)CCC[C@](C)([C@H]2CC[C@]3(C)[C@@H]2[C@H](O)C[C@@H]2[C@@]4(C)Cc5c(C(=O)O)nn(-c6ccccc6)c5C(C)(C)[C@@H]4[C@H](O)C[C@]23C)O1
Activity (Cardiac muscle cell [1]): 56.2%
Activity (Cardiac muscle cell [2]): 51.2%
Activity (Cardiac muscle cell [3]): Non-Toxic
Activity (Cardiac muscle cell [4]): 63.1%

CC1(C)CCC[C@](C)([C@H]2CC[C@]3(C)[C@@H]2[C@H](O)C[C@@H]2[C@@]4(C)Cc5cnn(-c6ccccc6)c5C(C)(C)[C@@H]4[C@H](O)C[C@]23C)O1
Activity (Cardiac muscle cell [1]): 57.3%
Activity (Cardiac muscle cell [2]): 50.8%
Activity (Cardiac muscle cell [3]): Non-Toxic
Activity (Cardiac muscle cell [4]): 62.5%
